Results from patent US10391168B1, “Anti-CD70 combination therapy” (University of Bern, priority 2014, dated 2019).

How the values were obtained:
[1] = test system: CD34+ stem/progenitor cells from newly diagnosed CML patients; experiment: Expression in FACS-sorted CD34+ CML stem/progenitor cells cultured ex vivo; conditions: imatinib 1 μM, 7 days
[2] = test system: human CD34+ CML stem/progenitor cells; experiment: Liquid culture of primary human CD34+ CML stem/progenitor cells: cell numbers, BrdU, viability; assay type: cell-based; conditions: 7 days; anti-CD70 mAb 10 μg/ml, imatinib 1 μM, alone or combined
[3] = test system: KBM5r cells; experiment: miR-29 expression and anti-miR silencing in KBM5r cells (qRT-PCR); assay type: cell-based, human; conditions: imatinib 1 μM, nilotinib 1 μM, ponatinib 0.1 μM; 72 h
Method: MicroRNA concentrations were measured using TaqMan miRNA Assays for miR-29a, miR-29b, miR-29c, or RNU48 (Applied Biosystems), and qRT-PCR results were normalized to RNU48 expression.
48 h after transfection, cells were harvested and subjected to total RNA extraction and cDNA synthesis for qRT-PCR.

[4] = test system: CD34+ stem/progenitor cells from healthy donors; experiment: Growth and colony formation of CD34+ stem/progenitor cells from BM of healthy donors; assay type: cell-based, human; conditions: anti-CD70 mAb 10 μg/ml, imatinib 1 μM, alone or combined; 7 or 14 days
[5] = test system: human CD34+ CML stem/progenitor cells; experiment: Expression in human CML cells ex vivo from xenografted NSG mice; conditions: imatinib 50 mg/kg daily, 2 weeks
From the text: (g-l) CD70 (g), SP1 (h), DNMT1 mRNA (i), and miR-29 expression (j-l) (qRT-PCR) in CD34^+ cells. (n-m) Correlation of CD70 expression with the expression of selected Wnt target genes RUNX1 (m) and WISP1 (n) in CD34^+ stem/progenitor cells from newly diagnosed chronic phase CML patients. Expression data are derived from a public repository for microarray data and are available under accession number E-MEXP-480 (EMBL EBI Arrayexpress). […] Statistics: (c-e), one-way ANOVA; (f-l), Student's t test; (m) and (n), Spearman correlation.
(p-r) CD70 and CD27 expression were determined on primary human CML cells. […] After 2 weeks of treatment, mice were euthanized and CML cells were analyzed for the expression of CD70 and CD27 by FACS. […] (p-q) red lines, CD70 and CD27 antibodies; blue lines, respective isotype controls.

[6] = test system: SD-1 cells; experiment: Chou-Talalay drug combination study, growth inhibition of SD-1 cells (cell numbers after 72 h)
[7] = in vivo; conditions: NSG, mouse, plasma, oral, 50 mg/kg
[8] = test system: human CD34+ CML stem/progenitor cells; experiment: Murine xenograft CML model: human CML cells in BM of NSG mice; assay type: in vivo

SMILES: Cc1ccc(NC(=O)c2ccc(CN3CCN(C)CC3)cc2)cc1Nc1nccc(-c2cccnc2)n1 [imatinib]
- CD70 protein expression [1]: increased CD70 protein expression
- Dnmt 1 mRNA expression [1]: down-regulated
- Dnmt3a mRNA expression [1]: down-regulated
- SP1 mRNA expression [1]: increased
- cell proliferation (BrdU) [2]: reduced cell proliferation
- cell viability / cell death [2]: induced cell death
- growth (cell numbers) [2]: inhibited growth and proliferation
- miR-29a, miR-29b, miR-29c expression [3]: did not affect miR-29s
- growth and colony formation of healthy donor CD34+ cells [4]: only marginally affected
- CD27 expression [5]: remained unchanged
- CD70 expression on CD34+ CML stem/progenitor cells [5]: specifically increased CD70 expression on CD34+ CML stem/progenitor cells
- DNMT1 and miR-29a, miR-29b, miR-29c expression in CD34+ CML stem/progenitor cells [5]: decreased the expression of DNMT1 and miR-29a, miR-29b, and miR-29c
- SP1 expression in CD34+ CML stem/progenitor cells [5]: up-regulation of SP1
- Fa (fraction affected), imatinib ([6]; imatinib 0.02 μM): 0.001
- Fa (fraction affected), imatinib ([6]; imatinib 0.04 μM): 0.040
- Fa (fraction affected), imatinib ([6]; imatinib 0.08 μM): 0.149
- Fa (fraction affected), imatinib ([6]; imatinib 0.16 μM): 0.201
- Fa (fraction affected), imatinib ([6]; imatinib 0.32 μM): 0.243
- Fa (fraction affected), imatinib ([6]; imatinib 0.64 μM): 0.351
- Fa (fraction affected), imatinib ([6]; imatinib 1.28 μM): 0.432
- Fa (fraction affected), imatinib ([6]; imatinib 2.55 μM): 0.527
- Fa (fraction affected), imatinib ([6]; imatinib 5.10 μM): 0.689
- Fa (fraction affected), imatinib ([6]; imatinib 10.20 μM): 0.791
- concentration at 2 weeks [7]: ~1000 nM
- frequencies and absolute numbers of CD45+CD33+ leukemia cells and CD34+ CML stem/progenitor cells in BM ([8]; cells of patients 3, 4 and 5, 2 weeks of treatment): reduced cell frequencies and absolute numbers
- eradication of CD34+ CML stem/progenitor cells in BM (NSG mice eradicated of treated) ([8]; patient 4 cells, 2 weeks of treatment): neither imatinib nor anti-CD70 mAb treatment alone eliminated all the CD34+ CML cells
- CD45+CD33+ CML myeloid cell frequencies and absolute numbers in BM ([8]; patient 4 cells, imatinib 50 mg/kg daily p.o., anti-CD70 mAb 10 mg/kg i.p. every 3rd day, 2 weeks): significantly reduced
